The record followed here is ChEMBL document CHEMBL1142239, “Optimization of novel acyl pyrrolidine inhibitors of hepatitis C virus RNA-dependent RNA polymerase leading to a development candidate” (J Med Chem, 2007).

Data set [1] in a line: Cytotoxicity against Vero cells after 4 days. The format is cell-based. To be noted: chlorocebus sabaeus, read-out: CCID50.
Data set [2] deals with Hepatitis C virus. Nature of the data set: Antiviral activity against HCV replicon containing HCV 1b genome transfected in Huh7 cells after 72 hrs by ELISA. To be noted: genotype 1b, Huh-7, 72 h. The format is functional, organism-based, Hepacivirus hominis. In general terms: Replicon systems follow genome replication, usually without infectious particles.
Data set [3] concerns Hepatitis C virus. Put plainly: Inhibition of HCV 1b RB01 NS5B by SPA. Also noted: species or system Hepatitis C virus subtype 1b.
The test system of data set [4] is Hepatitis C virus. Put plainly: Inhibition of HCV 1b RB01 NS5B by filtermat assay. More on the design: species or system Hepatitis C virus subtype 1b.
A short description of data set [5]: Plasma clearance in Sprague-Dawley rat at 1 mg/kg, iv. The format is ADME, organism-based. More on the design: dose 1 mg/kg, route intravenous.
Data set [6] in a line: Bioavailability in Sprague-Dawley rat at 2 mg/kg, po and 1 mg/kg, iv. To be noted: in vivo. The format is ADME, organism-based.
A short description of data set [7]: Lipophilicity, log D of the compound. The format is physicochemical. To be noted: octanol/water.
In data set [8] the test system is Hepatitis C virus. Put plainly: Antiviral activity against HCV replicon containing HCV 1b genome transfected in Huh7 cells in presence of interferon alpha 2a. The format is functional, organism-based. To be noted: Hepacivirus hominis; genotype 1b; Huh-7.

Active and inactive are the calls of the source. The calls are words filed in the database; no cut-off is given here.

Turning to `CCOC[C@@H]1C[C@@](CC(C)C)(C(=O)O)N(C(=O)c2ccc(C(C)(C)C)c(OC)c2)[C@H]1c1nccs1` (racemic), in data set [1], the CC50 at 96 h was 214000 nM. In the data set with Hepatitis C virus [2], this molecule showed an EC50 of 12800 nM. The molecule also showed an IC50 in the data set with Hepatitis C virus [3] of 3200 nM.
In the data set with Hepatitis C virus [4], `CC(C)C[C@@]1(C(=O)O)C[C@H](C(=O)O)[C@H](c2cccs2)N1C(=O)c1ccc(C(F)(F)F)cc1` (racemic) registered an IC50 of 20000 nM. In addition, the CC50 at 96 h in data set [1] was greater than 500000 nM. This molecule registered an EC50 with Hepatitis C virus [2] greater than 20000 nM.
As to `COc1cc(C(=O)N2[C@@H](c3nccs3)[C@H](CO)C[C@@]2(CC(C)C)C(=O)O)ccc1C(C)(C)C` (racemic), in data set [5], the clearance turned out to be 39 mL/min/kg. In data set [1], the CC50 at 96 h was 482000 nM. For the same molecule, the EC50 with Hepatitis C virus [2] is 1300 nM. Moreover, in data set [6], the bioavailability turned out to be 11%. This molecule displayed an IC50 in the data set on Hepatitis C virus [3] of 1000 nM.
Take `CC(C)C[C@@]1(C(=O)O)C[C@H](C(=O)O)[C@H](c2cccs2)N1C(=O)c1ccc(C(C)(C)C)cc1` (racemic): the IC50 with Hepatitis C virus [4] was found to be 1100 nM. The CC50 at 96 h in data set [1] was greater than 500000 nM. In the data set on Hepatitis C virus [2], this molecule gave an EC50 greater than 20000 nM.
As for `COC[C@@H]1C[C@@](CC(C)C)(C(=O)O)N(C(=O)c2ccc(C(C)(C)C)c(OC)c2)[C@H]1c1nccs1`, the clearance in data set [5] stood at 12 mL/min/kg. The CC50 at 96 h in data set [1] was determined as 265000 nM. In the data set on Hepatitis C virus [2], the EC50 is 5700 nM. For the same molecule, the bioavailability in data set [6] was found to be 44%. The molecule also had an IC50 in the data set on Hepatitis C virus [3] of 2300 nM.
In turn, `CC(C)C[C@@]1(C(=O)O)C[C@H](C(N)=O)[C@H](c2nccs2)N1C(=O)c1ccc(C(C)(C)C)c(Cl)c1` returned a clearance in data set [5] of 29 mL/min/kg. In the data set with Hepatitis C virus [4], this molecule came in with an IC50 of 20 nM. The CC50 at 96 h in data set [1] is greater than 500000 nM. The EC50 in the data set on Hepatitis C virus [2] was 1200 nM. Further, in data set [6], the bioavailability amounted to 5%.
`COc1cc(C(=O)N2[C@@H](c3nccs3)[C@@H](CO)C[C@@]2(CC(C)C)C(=O)O)ccc1C(C)(C)C` (racemic): in data set [5], the clearance was found to be 36 mL/min/kg. Further, in data set [1], the CC50 at 96 h amounted to 358000 nM. The midpoint of the response in the data set with Hepatitis C virus [2], the EC50, lay at 210 nM. The bioavailability in data set [6] worked out at 12%. In addition, in the data set with Hepatitis C virus [3], 730 nM corresponded to half-maximal inhibition (IC50).
The molecule `CC(C)C[C@@]1(C(=O)O)C[C@H](C(N)=O)[C@H](c2nccs2)N1C(=O)c1ccc(C(C)(C)C)cc1` returned a clearance in data set [5] of 21 mL/min/kg. In addition, the IC50 in the data set on Hepatitis C virus [4] is 970 nM. Moreover, the CC50 at 96 h in data set [1] came out at 430000 nM. Also, the EC50 with Hepatitis C virus [2] was greater than 20000 nM. For the same molecule, the bioavailability in data set [6] was determined as 2%.
In data set [5], `CCOC[C@H]1C[C@@](CC(C)C)(C(=O)O)N(C(=O)c2ccc(C(C)(C)C)c(OC)c2)[C@H]1c1nccs1` gave a clearance of 5 mL/min/kg. Moreover, the logD in data set [7] was 2.7. In data set [1], the CC50 at 96 h was 142000 nM. In the data set with Hepatitis C virus [2], the EC50 came to 470 nM. For the same molecule, the bioavailability in data set [6] came out at 120%. In the data set on Hepatitis C virus [3], this molecule gave an IC50 of 430 nM.
In turn, `CC(C)C[C@@]1(C(=O)O)C[C@H](C(=O)O)[C@H](c2nccs2)N1C(=O)c1ccc(C(C)(C)C)cc1` (racemic) came in with an IC50 in the data set on Hepatitis C virus [4] of 3800 nM. In data set [1], the CC50 at 96 h was greater than 500000 nM. In addition, the EC50 with Hepatitis C virus [2] is greater than 20000 nM.
Regarding `CC(C)C[C@@]1(C(=O)O)C[C@H](C(N)=O)[C@H](c2nccs2)N1C(=O)c1ccc(C(C)(C)C)c(Br)c1`, the clearance in data set [5] was determined as 24 mL/min/kg. The molecule further gave an IC50 in the data set with Hepatitis C virus [4] of 14 nM. The CC50 at 96 h in data set [1] is greater than 500000 nM. Moreover, the EC50 in the data set with Hepatitis C virus [2] amounted to 570 nM. In addition, the bioavailability in data set [6] came out at 2%.
The corresponding values for `COc1cc(C(=O)N2[C@@H](c3nccs3)[C@@H](C(N)=O)C[C@@]2(CC(C)C)C(=O)O)ccc1C(C)(C)C` are 37 mL/min/kg, 5 nM, greater than 500000 nM, 610 nM and 0.6%.
The molecule `COC[C@H]1C[C@@](CC(C)C)(C(=O)O)N(C(=O)c2ccc(C(C)(C)C)c(OC)c2)[C@H]1c1nccs1` showed a clearance in data set [5] of 5 mL/min/kg. In data set [7], this molecule returned a pH-dependent lipophilicity (logD) of 2.2. In addition, the result in the data set with Hepatitis C virus [8] was Active. Moreover, the CC50 at 96 h in data set [1] turned out to be 240000 nM. In the data set with Hepatitis C virus [2], this molecule returned an EC50 of 390 nM. Moreover, the bioavailability in data set [6] came to 59%. The molecule also came in with an IC50 in the data set on Hepatitis C virus [3] of 440 nM.

Usually EC50 stands for the concentration that produces a half-maximal response. Read a low EC50 as greater potency. Broadly, the IC50 is the midpoint of a concentration-inhibition curve. Read a high IC50 as weaker potency in that assay. For orientation: clearance means the volume of plasma or blood freed of the substance per unit of time. Read a low clearance as inefficient removal. The logD is lipophilicity at a set pH, counting ionised and neutral species. A lower logD goes with lower lipophilicity.
